Where “and” joins values, the source holds several entries; their conditions need not be identical. Equal values may be shown once. Read-outs that look alike come from different tables or passages of the source.
What was measured:
L-1210 Leukemia [1] = type: in vivo, mice
Procedure: In a series of studies against L-1210 leukemia, in addition to those studies set forth in Table 2 and 4, 3,4-dihydroxybenzohydroxamic acid gave the following increases in survival times at the dose levels specified. Drug was administered daily for nine days.
Similar data for 3,4,5-trihydroxybenzohydroxamic acid are as follows: […]

L1210 leukemia = L1210 leukemia in mice, increase in life span (Table 2); type: in vivo; details: Mus musculus, L1210, 192 h, read-out: ILS, average percent (± standard error) increase in life span
Text: As stated above, the compounds represented by formula I above have the ability to inhibit ribonucleotide reductase, an enzyme involved in the reductive conversion of ribonucleotides to deoxyribonucleotides. This enzymatic reaction is a rate controlling step in the biosynthetic pathway leading to DNA and cell replication. In general, the ribonucleotide reductase level is closely correlated with cellular replication.
(§1) Table 2 gives ribonucleotide reductase data for certain compounds of formula I. In the table, column 1 gives the substitution pattern in the benzene ring, column 2, the R^1 group, column 3, the ID50 (inhibitory dose in micromolar concentration which inhibits ribonucleotide reductase by 50%), column 4, the average percent (± standard error) increase in the life span (ILS) of 8 treated mice inoculated with L1210 leukemia compared with 8 control mice also inoculated with L1210. The daily dose level of the drug which was administered for 8 days is indicated in column 5. Table 3 gives the relative potency of the compounds represented by formula I above as inhibitors of ribonucleotide reductase compared to hydroxyurea whose potency was given an arbitrary value of 1.0. In table 3, column 1 gives the name of the compound and column 2 the relative inhibitory potency of each of the compounds of column 1.

[2] = test system: M-1 human breast xenograft; experiment: Inhibition of growth of M-1 human breast xenograft; type: in vivo, mice
Text: (§2) The same two compounds were effective in inhibiting the growth of the following transplanted tumors--B16 melanoma, M-1 human breast xenograft, LX-1 human lung xenograft, CD8F mammary tumor and colon 38 tumor--as follows: […]

CD8F mammary tumor = experiment: Inhibition of growth of CD8F mammary tumor; type: in vivo
Text: as §2

ribonucleotide reductase = molecular target: T1, ribonucleotide reductase (Rattus norvegicus, UniProt Q4KLN6); experiment: Inhibition of ribonucleotide reductase (conversion of CDP to dCDP), enzyme partially purified from Novikoff hepatoma; type: biochemical; details: for IC50: CDP to dCDP, 40 min at 30° C, pH 7.5, enzyme from Novikoff hepatoma, read-out: ID50 (inhibitory dose which inhibits ribonucleotide reductase by 50%); for Inhibitory Potency for ribonucleotide reductase: relative to hydroxyurea, given an arbitrary value of 1.0
T1 construct: partially purified from Novikoff hepatoma; from tissue; host or cells: Novikoff hepatoma (rat tumour), partially purified enzyme
T1 sequence (Q4KLN6 1-390): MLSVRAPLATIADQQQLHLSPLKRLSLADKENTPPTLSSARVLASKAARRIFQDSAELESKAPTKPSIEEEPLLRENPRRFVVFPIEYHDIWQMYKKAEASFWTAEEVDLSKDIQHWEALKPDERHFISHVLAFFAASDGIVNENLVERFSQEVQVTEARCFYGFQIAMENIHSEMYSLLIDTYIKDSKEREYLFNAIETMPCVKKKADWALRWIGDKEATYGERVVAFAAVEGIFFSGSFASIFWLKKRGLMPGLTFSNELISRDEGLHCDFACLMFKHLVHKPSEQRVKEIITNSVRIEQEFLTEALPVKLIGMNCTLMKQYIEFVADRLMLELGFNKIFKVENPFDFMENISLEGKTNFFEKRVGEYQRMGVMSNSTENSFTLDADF
Text: as §1
In the above determination of ID50 's in Table 3, ribonucleotide reductase is partially purified from Novikoff hepatoma by a procedure similar to that set forth by Elford et al. J. Biol. Chem. 245, 5228 (1970). The activity of the enzyme was measured by a slightly modified assay procedure originally developed by Reichard et al. id, 236, 1150 […]. This procedure measures the conversion of CDP to dCDP. The assay mixture (0.34 ml.) contains 3 μCi of [^3 H] CDP (specific activity […]), 3.3 μmole ATP, 5.9 μmoles magnesium chloride, 8.8 μmoles Hepes buffer at pH=7.5, 15 μmoles dithiothreitol and enzyme protein between 0.4 and 1.3 mg. Incubation was provided for forty minutes at 30° C. Ion exchange chromatography employing Dowex 50 (H^+) resin is used to separate the product from the substrate. The inhibitors were dissolved in water and a mixture of water and up to 1 % ethanol or 2% dimethylsulfoxide, neither one of which inhibited the enzyme at these concentrations. Each inhibitor was tested at a minimum of three concentrations and the active compounds reassayed at least one additional time. ID50 's in μmoles were estimated from graphs summarizing results for each compound.

Lewis Lung = experiment: Activity vs. Lewis Lung (Table 5); type: in vivo, mice; details: once or twice daily for 9-10 days
Procedure: (§3) All compounds were administered once or twice daily for 9-10 days starting 24 hours after inoculation with the tumor.

L-5563 lymphoma = experiment: Activity vs. L-5563 lymphoma (Table 6); details: once or twice daily for 9-10 days
Procedure: as §3

CX-1 colon xenograft = experiment: Activity against CX-1 colon xenograft; type: in vivo
Procedure: In addition, the compound 3,4-dihydroxybenzenehydroxamic acid was active against CX-1 colon xenograft using the following protocol:
0% tumor inhibition at 800 mg/kg dose level every fourth day,
3,4,5-trihydroxybenzohydroxamic acid gave the following results against the same tumor using the same protocol.

colon 38 tumor = experiment: Inhibition of growth of colon tumor C8 (colon 38); type: in vivo, mice
Text: as §2

CA-755 adenocarcinoma = experiment: Activity vs. CA-755 adenocarcinoma (Table 7); type: in vivo, mice; details: once or twice daily for 9-10 days
Procedure: as §3

P-388 leukemia = experiment: Prolongation of life of mice inoculated with P-388 leukemia, dosing every fifth day; type: in vivo; details: 50-400 mg/kg every fifth day
P388 Leukemia = experiment: Activity vs. P388 Leukemia (Table 8); type: in vivo, mice; details: once or twice daily for 9-10 days
Procedure: as §3

L-1210 Leukemia [3] = type: in vivo, mice; details: once or twice daily for 9-10 days
Procedure: as §3

B16 melanoma = experiment: B16 melanoma, increase in survival; type: in vivo, mice
Text: as §2

[4] = test system: LX-1 human lung xenograft; experiment: Inhibition of growth of LX-1 human lung xenograft; type: in vivo, mice
Text: as §2

L-1210 Leukemia [5] = type: in vivo, mice; remark: listed apart in the source
Text: The above data clearly show the enhanced anti-tumor activity of trihydroxybenzohydroxamic acid where the hydroxy groups are vicinal but no hydroxyl is ortho. Similar data are available for the vicinal dihydroxybenzohydroxamic acids with and without an ortho-hydroxy substituent in an L-1210 leukemic test in mice as follows: […]

L-1210 Leukemia [6] = experiment: Direct side-by-side comparison with L-1210 leukemia; type: in vivo, mice
Text: In a direct side-by-side comparison with L-1210 leukemia, the following results were obtained.

[7] = test system: DNA synthesis in Ehrlich ascites tumor cells; details: Gale and Hynes 1968; in vitro; cited from earlier work
[8] = test system: RNA and protein synthesis in Ehrlich ascites tumor cells; details: Gale and Hynes 1968; cited from earlier work

## O=C(NO)c1cc(O)c(O)c(O)c1 [3,4,5-trihydroxybenzohydroxamic acid]
L-1210 Leukemia [1]; 50 mg/kg daily for nine days
  % increase in survival: 27% and 29%
L-1210 Leukemia [1]; 200 mg/kg daily for nine days
  % increase in survival: 54% and 56%
L-1210 Leukemia [1]; 400 mg/kg daily for nine days
  % increase in survival: 0% and 4%
L-1210 Leukemia [1]; dose 800, similar data (daily for nine days)
  % increase in survival time: 16%
L1210 leukemia; 400 mg/kg daily for 8 days
  ILS at 400 mg/kg: 53 ± 19%
[2]; 200 mg/kg
  inhibition: 69%
[2]; 400 mg/kg
  inhibition: 21%
[2]; 800 mg/kg
  inhibition: 56%
[2]; 1600 mg/kg
  inhibition: 41%
CD8F mammary tumor; 300 mg/kg
  inhibition: 0%
CD8F mammary tumor; 600 mg/kg
  inhibition: 22%
Ribonucleotide reductase
  IC50: 10 µM
  Inhibitory Potency for ribonucleotide reductase: 50
Lewis Lung; 100 mg/kg
  % tumor inhibition: 40%
L-5563 lymphoma; 100 mg/kg
  % inhibition: 41%
CX-1 colon xenograft; 200 mg/kg every fourth day
  tumor inhibition: 17%
CX-1 colon xenograft; 400 mg/kg every fourth day
  tumor inhibition: 40%
CX-1 colon xenograft; 800 mg/kg every fourth day
  tumor inhibition: 44%
Colon 38 tumor; 50 mg/kg
  inhibition: 20%
Colon 38 tumor; 100 mg/kg
  inhibition: 30%
Colon 38 tumor; 200 mg/kg
  inhibition: 32%
Colon 38 tumor; 400 mg/kg
  inhibition: 17%
Colon 38 tumor; 800 mg/kg
  inhibition: 60%
CA-755 adenocarcinoma; 100 mg/kg
  % inhibition: 28%
CA-755 adenocarcinoma; 150 mg/kg
  % inhibition: 11%
CA-755 adenocarcinoma; 175 mg/kg
  % inhibition: 29%
P-388 leukemia
  prolongation of life: 23-53%
P388 Leukemia; 200 mg/kg
  % Prolongation: 62%
P388 Leukemia; 225 mg/kg
  % Prolongation: 79%
L-1210 Leukemia [3]; 75 mg/kg
  % increase in survival time: 60%
L-1210 Leukemia [3]; 100 mg/kg, listed as gallohydroxamic acid
  % increase in survival time: 58% and 55%
L-1210 Leukemia [3]; 120 mg/kg
  % increase in survival time: 54%
B16 melanoma; 100 mg/kg
  increase in survival: 14%
B16 melanoma; 200 mg/kg
  increase in survival: 18%

## O=C(NO)c1ccc(O)c(O)c1 [3,4-dihydroxybenzohydroxamic acid]
L-1210 Leukemia [1]; 25 mg/kg daily for nine days
  % increase in survival: 15%
L-1210 Leukemia [1]; 50 mg/kg daily for nine days
  % increase in survival: 25%
L-1210 Leukemia [1]; 100 mg/kg daily for nine days
  % increase in survival: 37%
L-1210 Leukemia [1]; 164 mg/kg daily for nine days
  % increase in survival: 21%
L-1210 Leukemia [1]; 196 mg/kg daily for nine days
  % increase in survival: 52%
L-1210 Leukemia [1]; 200 mg/kg daily for nine days
  % increase in survival: 67%
L-1210 Leukemia [1]; 235 mg/kg daily for nine days
  % increase in survival: 39%
L-1210 Leukemia [1]; 245 mg/kg daily for nine days
  % increase in survival: 45% and 68%
L-1210 Leukemia [1]; 307 mg/kg daily for nine days
  % increase in survival: 67% and 76%
L-1210 Leukemia [1]; 336 mg/kg daily for nine days
  % increase in survival: 55%
L-1210 Leukemia [1]; 384 mg/kg daily for nine days
  % increase in survival: 62% and 85%
L-1210 Leukemia [1]; 400 mg/kg daily for nine days
  % increase in survival: 67%
L-1210 Leukemia [1]; 480 mg/kg daily for nine days
  % increase in survival: 106% and 87% and 67%
L-1210 Leukemia [1]; 600 mg/kg daily for nine days
  % increase in survival: 54% and 64%
[4]; 200 mg/kg
  inhibition: 0%
[4]; 400 mg/kg
  inhibition: 26%
[4]; 800 mg/kg
  inhibition: 27%
L1210 leukemia; 600 mg/kg daily for 8 days
  ILS at 600 mg/kg: 103 ± 15%
CD8F mammary tumor; 300 mg/kg
  inhibition: 52%
CD8F mammary tumor; 600 mg/kg
  inhibition: 11%
L-1210 Leukemia [5]; 100 mg/kg
  % increase in survival time: 25%
L-1210 Leukemia [5]; 300 mg/kg
  % increase in survival time: 56%
L-1210 Leukemia [5]; 453 mg/kg
  % increase in survival time: 125%
L-1210 Leukemia [5]; 500 mg/kg
  % increase in survival time: 84%
L-1210 Leukemia [5]; 543 mg/kg
  % increase in survival time: 77%
L-1210 Leukemia [5]; 600 mg/kg
  % increase in survival time: 94% and 103%
L-1210 Leukemia [5]; 643 mg/kg
  % increase in survival time: 65%
Ribonucleotide reductase
  IC50: 30 µM
  Inhibitory Potency for ribonucleotide reductase: 17
Lewis Lung; 200 mg/kg
  % tumor inhibition: 14%
Lewis Lung; 400 mg/kg
  % tumor inhibition: 31-58%
L-5563 lymphoma; 200 mg/kg
  % inhibition: 24%
CX-1 colon xenograft; 200 mg/kg every fourth day
  tumor inhibition: 48%
CX-1 colon xenograft; 400 mg/kg every fourth day
  tumor inhibition: 14%
CX-1 colon xenograft; 800 mg/kg every fourth day
  tumor inhibition: 0%
CX-1 colon xenograft; every fourth day
  activity against CX-1 colon xenograft (in words): active
Colon 38 tumor; 50 mg/kg
  inhibition: 12%
Colon 38 tumor; 100 mg/kg
  inhibition: 8%
Colon 38 tumor; 200 mg/kg
  inhibition: 15%
Colon 38 tumor; 400 mg/kg
  inhibition: 52%
CA-755 adenocarcinoma; 100 mg/kg
  % inhibition: 16%
CA-755 adenocarcinoma; 200 mg/kg
  % inhibition: 25% and 36%
CA-755 adenocarcinoma; 300 mg/kg
  % inhibition: 52%
  toxic (in column % inhibition): toxic
L-1210 Leukemia [6]; 250 mg/kg
  % increase in survival time: 32%
L-1210 Leukemia [6]; 500 mg/kg
  % increase in survival time: 70%
P388 Leukemia; 200 mg/kg
  % Prolongation: 51%
P388 Leukemia; 225 mg/kg
  % Prolongation: 89%
L-1210 Leukemia [3]; 200 mg/kg
  survivors: 4 survivors
L-1210 Leukemia [3]; 225 mg/kg
  % increase in survival time: 65%
B16 melanoma; 200 mg/kg
  increase in survival: 24-25%
B16 melanoma; 400 mg/kg
  increase in survival: 41%

## Nc1cccc(C(=O)NO)c1 [3-Aminobenzohydroxamic acid]
[7]
  inhibition of / selectivity against DNA synthesis (in words): completely inhibiting DNA synthesis
[8]
  depression of RNA and protein synthesis: 50%

Source: patent publication US4448730A, “Hydroxybenzohydroxamic acids, benzamides and esters and related compounds as ribonucleotide reductase inhibitors” (priority 1982, dated 1984)
